Reference: US20100076015A1, “Aminopyridine Derivatives” (VANTIA LIMITED, priority 2008, published 2010)

Each molecule was assayed against T1, Human KLK1 (Homo sapiens, UniProt P06870) (assay: Determination of the IC50 for KLK1 (fluorogenic substrate H-DVal-Leu-Arg-AFC)). Details: 37° C.
T1 construct: purchased Callbiochem (Calbiochem)
Assay type: biochemical
In short: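 hKLK1 + H-DVal-Leu-Arg-AFC, 37° C, varied cpd conc. Initial rate by A410 change → residual activity → IC50.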

T1 sequence (P06870 25-262): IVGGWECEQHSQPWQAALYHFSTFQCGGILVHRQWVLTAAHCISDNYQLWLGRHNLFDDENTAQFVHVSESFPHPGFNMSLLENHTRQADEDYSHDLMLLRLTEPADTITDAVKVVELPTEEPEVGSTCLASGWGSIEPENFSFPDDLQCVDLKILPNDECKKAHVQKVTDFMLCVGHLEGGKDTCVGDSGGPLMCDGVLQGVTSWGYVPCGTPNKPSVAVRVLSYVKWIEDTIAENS

Structure (SMILES)	IC50 [nM]
Cc1cccc(C[C@H](NC(=O)c2[nH]c(C)cc2C)C(=O)NCc2ccc(N)nc2C)c1 [Example 281, 3,5-Dimethyl-1H-pyrrole-2-carboxylic acid {(S)-1-[(6-amino-2-methyl-pyridin-3-ylmethyl)-carbamoyl]-2-m-tolyl-ethyl}-amide]	1.8
Nc1ccc(CNC(=O)[C@H](Cc2cccc(Cl)c2)NC(=O)CN2CCCCC2)cn1 [Example 412, (S)—N-(6-Amino-pyridin-3-ylmethyl)-3-(3-chloro-phenyl)-2-(2-piperidin-1-yl-acetylamino)-propionamide]	9.3
CCC(C)[C@@H](C(=O)N[C@@H](Cc1ccc(F)cc1)C(=O)NCc1ccc(N)nc1)N(C)C(C)C (stereo partly drawn) [Example 371, (S)-2-(Isopropyl-methyl-amino)-3-methyl-pentanoic acid [(S)-1-[(6-amino-pyridin-3-ylmethyl)-carbamoyl]-2-(4-fluoro-phenyl)-ethyl]-amide]	7.3
C[C@H](C(=O)N[C@@H](Cc1ccc(F)cc1)C(=O)NCc1ccc(N)nc1)N1CCCCC1 [Example 374, (R)—N-[(S)-1-[(6-Amino-pyridin-3-ylmethyl)-carbamoyl]-2-(4-fluoro-phenyl)-ethyl]-2-piperidin-1-yl-propionamide]	52.7
Nc1ccc(CNC(=O)[C@H](Cc2ccc(F)c(F)c2)NC(=O)[C@H]2CCCN2Cc2ccc(Cl)cc2)cn1 [Example 142, (R)-1-(4-Chloro-benzyl)-pyrrolidine-2-carboxylic acid [(S)-1-[(6-amino-pyridin-3-ylmethyl)-carbamoyl]-2-(3,4-difluoro-phenyl)-ethyl]-amide]	15
Nc1ccc(CNC(=O)[C@H](Cc2cccc3ccccc23)NC(=O)c2nc3ccccc3[nH]2)cn1 [Example 299, 1H-Benzoimidazole-2-carboxylic acid {(S)-1-[(6-amino-pyridin-3-ylmethyl)-carbamoyl]-2-naphthalen-1-yl-ethyl}-amide]	8.1
Cc1cccc(C[C@H](NC(=O)c2[nH]ccc2C)C(=O)NCc2ccc(N)nc2)c1 [Example 268, 3-Methyl-1H-pyrrole-2-carboxylic acid {(S)-1-[(6-amino-pyridin-3-ylmethyl)-carbamoyl]-2-m-tolyl-ethyl}-amide]	7.7
CCC(C)[C@@H](NC)C(=O)N[C@@H](Cc1cc(F)cc(F)c1)C(=O)NCc1ccc(N)nc1 (stereo partly drawn) [Example 49, (R)-3-Methyl-2-methylamino-pentanoic acid [(S)-1-[(6-amino-pyridin-3-ylmethyl)-carbamoyl]-2-(3,5-difluoro-phenyl)-ethyl]-amide]	4.2
CCN(CC)[C@@H](C)C(=O)N[C@@H](Cc1cccc(C)c1)C(=O)NCc1ccc(N)nc1 [Example 415, (S)—N-{(S)-1-[(6-Amino-pyridin-3-ylmethyl)-carbamoyl]-2-m-tolyl-ethyl}-2-diethylamino-propionamide]	5.3
Cc1ccc(-c2ccc(C(=O)N[C@@H](Cc3ccc(F)c(F)c3)C(=O)NCc3ccc(N)nc3)[nH]2)cc1 [Example 294, 5-p-Tolyl-1H-pyrrole-2-carboxylic acid [(S)-1-[(6-amino-pyridin-3-ylmethyl)-carbamoyl]-2-(3,4-difluoro-phenyl)-ethyl]-amide]	35.6
CC(C)N(C)[C@@H](C)C(=O)N[C@@H](Cc1cccc(C(F)(F)F)c1)C(=O)NCc1ccc(N)nc1 [Example 417, (S)—N-[(S)-1-[(6-Amino-pyridin-3-ylmethyl)-carbamoyl]-2-(3-trifluoromethyl-phenyl)-ethyl]-2-(isopropyl-methyl-amino)-propionamide]	0.83
CCCCN(C)CC(=O)N[C@@H](Cc1ccc(F)c(F)c1)C(=O)NCc1ccc(N)nc1 [Example 167, (S)—N-(6-Amino-pyridin-3-ylmethyl)-2-[2-(butyl-methyl-amino)-acetylamino]-3-(3,4-difluoro-phenyl)-propionamide]	258
Cc1nc(N)ccc1CNC(=O)[C@H](Cc1ccc(Cl)c(Cl)c1)NC(=O)[C@H](N)CC1CCCCC1 [Example 200, (R)-2-Amino-N-[(S)-1-[(6-amino-2-methyl-pyridin-3-ylmethyl)-carbamoyl]-2-(3,4-dichloro-phenyl)-ethyl]-3-cyclohexyl-propionamide]	22.1
CC(C)N(C)C(C)C(=O)NC(Cc1cccc(Cl)c1)C(=O)NCc1ccc(N)nc1 [Example 409, (S)—N-[(S)-1-[6-Amino-pyridin-3-ylmethyl)-carbamoyl]-2-(3-chloro-phenyl)-ethyl]-2-(isopropyl-methyl-amino)-propionamide]	0.63
CCC(C)[C@@H](C(=O)N[C@@H](Cc1ccc(F)c(F)c1)C(=O)NCc1ccc(N)nc1)N(C)C(C)C (stereo partly drawn) [Example 349, (S)-2-(Isopropyl-methyl-amino)-3-methyl-pentanoic acid [(S)-1-[(6-amino-pyridin-3-ylmethyl)-carbamoyl]-2-(3,4-difluoro-phenyl)-ethyl]-amide]	7.8
CCC(C)C(NC)C(=O)NC(Cc1c(F)c(F)c(F)c(F)c1F)C(=O)NCc1ccc(N)nc1 [Example 50, (R)-3-Methyl-2-methylamino-pentanoic acid {(S)-1-[(6-amino-pyridin-3-ylmethyl)-carbamoyl]-2-pentafluorophenyl-ethyl}-amide]	29.1

Structure (SMILES)	IC50 [nM]
Cc1cc(C)c(C(=O)N[C@@H](Cc2ccccc2C)C(=O)NCc2ccc(N)nc2)[nH]1 [Example 244, 3,5-Dimethyl-1H-pyrrole-2-carboxylic acid {(S)-1-[(6-amino-pyridin-3-ylmethyl)-carbamoyl]-2-o-tolyl-ethyl}-amide]	7.8
CC(C(=O)N[C@@H](Cc1cccc(C(F)(F)F)c1)C(=O)NCc1ccc(N)nc1)N1CCCCC1 (stereo partly drawn) [Example 419, N-[(S)-1-[(6-Amino-pyridin-3-ylmethyl)-carbamoyl]-2-(3-trifluoromethyl-phenyl)-ethyl]-2-piperidin-1-yl-propionamide]	16.3
Nc1ccc(CNC(=O)[C@H](Cc2cccc3ccccc23)NC(=O)c2ncc[nH]2)cn1 [Example 289, 1H-Imidazole-2-carboxylic acid {(S)-1-[(6-amino-pyridin-3-ylmethyl)-carbamoyl]-2-naphthalen-1-yl-ethyl}-amide]	30.5
Cc1nc(N)ccc1CNC(=O)[C@H](Cc1ccc(F)c(F)c1)NC(=O)CN1C(C)CCCC1C (stereo partly drawn) [Example 429, (S)—N-(6-Amino-2-methyl-pyridin-3-ylmethyl)-3-(3,4-difluoro-phenyl)-2-[2-(2,6-dimethyl-piperidin-1-yl)-acetylamino]-propionamide]	1.7
Nc1ccc(CNC(=O)[C@H](Cc2ccc(Cl)c(Cl)c2)NC(=O)[C@H]2CSCN2)cn1 [Example 56, (S)-Thiazolidine-4-carboxylic acid [(S)-1-[(6-amino-pyridin-3-ylmethyl)-carbamoyl]-2-(3,4-dichloro-phenyl)-ethyl]-amide]	7.1
Nc1ccc(CNC(=O)[C@H](Cc2ccc(Cl)c(Cl)c2)NC(=O)[C@H]2CC(F)(F)CN2)cn1 [Example 66, (R)-4,4-Difluoro-pyrrolidine-2-carboxylic acid [(S)-1-[(6-amino-pyridin-3-ylmethyl)-carbamoyl]-2-(3,4-dichloro-phenyl)-ethyl]-amide]	20.7
CN1CCC[C@@H]1C(=O)N[C@@H](Cc1ccc(Cl)cc1)C(=O)NCc1ccc(N)nc1 [Example 93, (R)-1-Methyl-pyrrolidine-2-carboxylic acid [(S)-1-[(6-amino-pyridin-3-ylmethyl)-carbamoyl]-2-(4-chloro-phenyl)-ethyl]-amide]	0.85
Cc1c[nH]c(C(=O)N[C@@H](Cc2cccc(Cl)c2)C(=O)NCc2ccc(N)nc2)c1 [Example 259, 4-Methyl-1H-pyrrole-2-carboxylic acid [(S)-1-[(6-amino-pyridin-3-ylmethyl)-carbamoyl]-2-(3-chloro-phenyl)-ethyl]-amide]	85.4
CNCC(=O)N[C@@H](C(=O)NCc1ccc(N)nc1)C(C1CCCCC1)C1CCCCC1 [Example 221, (R)—N-(6-Amino-pyridin-3-ylmethyl)-3,3-dicyclohexyl-2-(2-methylamino-acetylamino)-propionamide]	50.5
CCC(C)[C@@H](NC)C(=O)N[C@@H](Cc1cccc(Cl)c1)C(=O)NCc1ccc(N)nc1 (stereo partly drawn) [Example 45, (R)-3-Methyl-2-methylamino-pentanoic acid [(S)-1-[(6-amino-pyridin-3-ylmethyl)-carbamoyl]-2-(3-chloro-phenyl)-ethyl]-amide]	3.1
CN1CCC[C@@H]1C(=O)N[C@@H](Cc1cccc(Cl)c1)C(=O)NCc1ccc(N)nc1 [Example 103, (R)-1-Methyl-pyrrolidine-2-carboxylic acid [(S)-1-[(6-amino-pyridin-3-ylmethyl)-carbamoyl]-2-(3-chloro-phenyl)-ethyl]-amide]	5.4
CN[C@H](C)C(=O)N[C@@H](Cc1ccc(F)cc1)C(=O)NCc1ccc(N)nc1 [Example 87, (R)—N-[(S)-1-[(6-Amino-pyridin-3-ylmethyl)-carbamoyl]-2-(4-fluoro-phenyl)-ethyl]-2-methylamino-propionamide]	6.4
CCCCN(C)[C@@H](C)C(=O)N[C@@H](Cc1ccc(F)cc1)C(=O)NCc1ccc(N)nc1 [Example 369, (S)—N-[(S)-1-[(6-Amino-pyridin-3-ylmethyl)-carbamoyl]-2-(4-fluoro-phenyl)-ethyl]-2-(butyl-methyl-amino)-propionamide]	29.1
COc1ccc2[nH]c(C(=O)N[C@@H](Cc3cccc4ccccc34)C(=O)NCc3ccc(N)nc3)cc2c1 [Example 300, 5-Methoxy-1H-indole-2-carboxylic acid {(S)-1-[(6-amino-pyridin-3-ylmethyl)-carbamoyl]-2-naphthalen-1-yl-ethyl}-amide]	7.4
COc1ccc2[nH]c(C(=O)N[C@@H](Cc3cccc(Cl)c3)C(=O)NCc3ccc(N)nc3)cc2c1 [Example 314, 5-Methoxy-1H-indole-2-carboxylic acid [(S)-1-[(6-amino-pyridin-3-ylmethyl)-carbamoyl]-2-(3-chloro-phenyl)-ethyl]-amide]	15.6
